From patent US11279733B2, “Peptide antibiotics” (priority 2017, dated 2022)

Test system: bacterial strains
Experiment: Potentiation/synergy antimicrobial assay (checkerboard, FICI) with antibiotics
Assay type: cell-based
Conditions: for MIC of antibiotic with 6442 at concn 0: 6442 0 μg/mL; for MIC of antibiotic with 6442 at concn 0.03: 6442 0.03 μg/mL; for MIC of antibiotic with 6442 at concn 0.0625: 6442 0.0625 μg/mL; for MIC of antibiotic with 8980 at conc 0: 8980 0 μg/mL; for MIC of antibiotic with 8980 at conc 1: 8980 1 μg/mL; for MIC of antibiotic with 8980 at conc 2: 8980 2 μg/mL; for MIC of antibiotic with 8980 at conc 4: 8980 4 μg/mL; for MIC of antibiotic with 8980 at conc 8: 8980 8 μg/mL; for MIC of antibiotic with 8981 at conc 0: 8981 0 μg/mL; for MIC of antibiotic with 8981 at conc 1: 8981 1 μg/mL; for MIC of antibiotic with 8981 at conc 2: 8981 2 μg/mL; for MIC of antibiotic with 8981 at conc 4: 8981 4 μg/mL; for MIC of antibiotic with 8981 at conc 8: 8981 8 μg/mL; for MIC of antibiotic with OctC4 at concn 0: OctC4 0 μg/mL; for MIC of antibiotic with OctC4 at concn 0.03: OctC4 0.03 μg/mL; for MIC of antibiotic with OctC4 at concn 0.0625: OctC4 0.0625 μg/mL; for MIC of antibiotic with OctC4 at concn 0.125: OctC4 0.125 μg/mL; for MIC of antibiotic with 6442 at concn 0.25: 6442 0.25 μg/mL; for MIC of antibiotic with 6442 at concn 0.125: 6442 0.125 μg/mL; for MIC of antibiotic with OctC4 at concn 0.25: OctC4 0.25 μg/mL
Description: Potentiation/synergy antimicrobial assays were conducted in the same manner as the standard MICs described above, with the following modifications. Assays were performed in 384-well non-binding surface plates (NBS; Corning 3460) and in Cation-adjusted Mueller Hinton Broth (CA-MHB; BD, Cat. No. 212322) with a final assay volume of 50 μL once bacteria was added at 5×10^5 CFU/mL. Antibiotics and octapeptin compounds were plated in duplicate as a 2-fold concentration series, in a matrix checkerboard format. The bacterial cell density of the resultant assay plates after 18-20 h incubation at 37° C. was read by optical density 600 nm (OD600) using a Tecan M1000 Pro Spectrophotometer, and analysed for ≥90% growth inhibition compared to the growth control to determine active concentrations. Synergistic effect was calculated based on the fractional inhibitory concentration index (FICI) by the following equation, where synergy is deemed FICI 0.5: […]

CN(C)c1ccc(O)c2c1C[C@H]1C[C@H]3[C@H](N(C)C)C(O)=C(C(N)=O)C(=O)[C@@]3(O)C(O)=C1C2=O [Minocycline, minocycline]
2 to 4 µg/mL: MIC of antibiotic with 6442 at concn 0.0625 (GN_105 P. aeruginosa PmxR) | MIC of antibiotic with OctC4 at concn 0.0625 (GN_181 E. coli mcr-1)
0.125 µg/mL: MIC of antibiotic with 6442 at concn 0.0625 (GN_007 E. coli ESBL) | MIC of antibiotic with 8980 at conc 2 (GN_007 E. coli ESBL) | MIC of antibiotic with OctC4 at concn 0.125 (GN_007 E. coli ESBL)
4 µg/mL: MIC of antibiotic with 8980 at conc 0 (GN_019 A. baumannii CARB) | MIC of antibiotic with 8981 at conc 0 (GN_019 A. baumannii CARB) | MIC of antibiotic with 6442 at concn 0.03 (GN_105 P. aeruginosa PmxR) | MIC of antibiotic with OctC4 at concn 0.0625 (GN_105 P. aeruginosa PmxR) | MIC of antibiotic with OctC4 at concn 0.125 (GN_105 P. aeruginosa PmxR) | MIC of antibiotic with 6442 at concn 0 (GN_181 E. coli mcr-1) | MIC of antibiotic with 6442 at concn 0.03 (GN_181 E. coli mcr-1) | MIC of antibiotic with 8980 at conc 0 (GN_181 E. coli mcr-1) | MIC of antibiotic with 8981 at conc 0 (GN_181 E. coli mcr-1) | MIC of antibiotic with OctC4 at concn 0 (GN_181 E. coli mcr-1) | MIC of antibiotic with OctC4 at concn 0.03 (GN_181 E. coli mcr-1)
1 µg/mL: MIC of antibiotic with 8980 at conc 2 (GN_105 P. aeruginosa PmxR) | MIC of antibiotic with 8980 at conc 4 (GN_105 P. aeruginosa PmxR) | MIC of antibiotic with 6442 at concn 0.125 (GN_181 E. coli mcr-1)
0.25 µg/mL: MIC of antibiotic with 6442 at concn 0 (GN_007 E. coli ESBL) | MIC of antibiotic with 6442 at concn 0.03 (GN_007 E. coli ESBL) | MIC of antibiotic with 8980 at conc 0 (GN_007 E. coli ESBL) | MIC of antibiotic with 8981 at conc 0 (GN_007 E. coli ESBL) | MIC of antibiotic with 8981 at conc 1 (GN_007 E. coli ESBL) | MIC of antibiotic with OctC4 at concn 0 (GN_007 E. coli ESBL) | MIC of antibiotic with OctC4 at concn 0.03 (GN_007 E. coli ESBL)
0.03 to 0.125 µg/mL: MIC of antibiotic with 8981 at conc 4 (GN_007 E. coli ESBL) | MIC of antibiotic with 8981 at conc 8 (GN_007 E. coli ESBL)
2 to 32 µg/mL: MIC of antibiotic with 8981 at conc 2 (GN_093 A. baumannii XDR/PmxR)
0.06 to 0.25 µg/mL: MIC of antibiotic with OctC4 at concn 0.25 (GN_181 E. coli mcr-1)
16 µg/mL: MIC of antibiotic with 6442 at concn 0.03 (GN_102 K. pneumoniae XDR/PmxR) | MIC of antibiotic with 6442 at concn 0.0625 (GN_102 K. pneumoniae XDR/PmxR) | MIC of antibiotic with OctC4 at concn 0.0625 (GN_102 K. pneumoniae XDR/PmxR) | MIC of antibiotic with OctC4 at concn 0.125 (GN_102 K. pneumoniae XDR/PmxR)
8 µg/mL: MIC of antibiotic with 8980 at conc 0 (GN_093 A. baumannii XDR/PmxR) | MIC of antibiotic with 8981 at conc 0 (GN_093 A. baumannii XDR/PmxR) | MIC of antibiotic with 6442 at concn 0 (GN_105 P. aeruginosa PmxR) | MIC of antibiotic with 8980 at conc 0 (GN_105 P. aeruginosa PmxR) | MIC of antibiotic with 8981 at conc 0 (GN_105 P. aeruginosa PmxR) | MIC of antibiotic with OctC4 at concn 0 (GN_105 P. aeruginosa PmxR) | MIC of antibiotic with OctC4 at concn 0.03 (GN_105 P. aeruginosa PmxR)
1 to 2 µg/mL: MIC of antibiotic with 8980 at conc 1 (GN_181 E. coli mcr-1) | MIC of antibiotic with 8981 at conc 1 (GN_181 E. coli mcr-1) | MIC of antibiotic with 8981 at conc 2 (GN_181 E. coli mcr-1)
0.06 to 0.125 µg/mL: MIC of antibiotic with 8980 at conc 4 (GN_007 E. coli ESBL) | MIC of antibiotic with 8980 at conc 8 (GN_007 E. coli ESBL)
32 µg/mL: MIC of antibiotic with 6442 at concn 0 (GN_045 K. pneumoniae NDM-1) | MIC of antibiotic with 6442 at concn 0.03 (GN_045 K. pneumoniae NDM-1) | MIC of antibiotic with 6442 at concn 0.0625 (GN_045 K. pneumoniae NDM-1) | MIC of antibiotic with 8980 at conc 0 (GN_045 K. pneumoniae NDM-1) | MIC of antibiotic with 8981 at conc 0 (GN_045 K. pneumoniae NDM-1) | MIC of antibiotic with OctC4 at concn 0 (GN_045 K. pneumoniae NDM-1) | MIC of antibiotic with OctC4 at concn 0.03 (GN_045 K. pneumoniae NDM-1) | MIC of antibiotic with OctC4 at concn 0.0625 (GN_045 K. pneumoniae NDM-1) | MIC of antibiotic with OctC4 at concn 0.125 (GN_045 K. pneumoniae NDM-1) | MIC of antibiotic with 6442 at concn 0 (GN_102 K. pneumoniae XDR/PmxR) | MIC of antibiotic with 8980 at conc 0 (GN_102 K. pneumoniae XDR/PmxR) | MIC of antibiotic with 8981 at conc 0 (GN_102 K. pneumoniae XDR/PmxR) | MIC of antibiotic with OctC4 at concn 0 (GN_102 K. pneumoniae XDR/PmxR) | MIC of antibiotic with OctC4 at concn 0.03 (GN_102 K. pneumoniae XDR/PmxR)
2 to 16 µg/mL: MIC of antibiotic with 8981 at conc 1 (GN_019 A. baumannii CARB) | MIC of antibiotic with 8981 at conc 2 (GN_019 A. baumannii CARB)
0.06 µg/mL: MIC of antibiotic with 6442 at concn 0.25 (GN_105 P. aeruginosa PmxR) | MIC of antibiotic with 6442 at concn 0.25 (GN_181 E. coli mcr-1)
0.5 to 2 µg/mL: MIC of antibiotic with 8980 at conc 2 (GN_181 E. coli mcr-1) | MIC of antibiotic with 8980 at conc 4 (GN_181 E. coli mcr-1) | MIC of antibiotic with 8980 at conc 8 (GN_181 E. coli mcr-1) | MIC of antibiotic with 8981 at conc 4 (GN_181 E. coli mcr-1) | MIC of antibiotic with 8981 at conc 8 (GN_181 E. coli mcr-1)
0.125 to 0.25 µg/mL: MIC of antibiotic with 8980 at conc 1 (GN_007 E. coli ESBL) | MIC of antibiotic with 8981 at conc 2 (GN_007 E. coli ESBL) | MIC of antibiotic with OctC4 at concn 0.0625 (GN_007 E. coli ESBL)
4 to 32 µg/mL: MIC of antibiotic with 8981 at conc 1 (GN_093 A. baumannii XDR/PmxR)

CO[C@H]1/C=C/O[C@@]2(C)Oc3c(C)c(O)c4c(O)c(c(/C=N/N5CCN(C)CC5)c(O)c4c3C2=O)NC(=O)/C(C)=C\C=C\[C@H](C)[C@H](O)[C@@H](C)[C@@H](O)[C@@H](C)[C@H](OC(C)=O)[C@@H]1C [Rifampicin, rifampicin]
16 to 32 µg/mL: MIC of antibiotic with 8981 at conc 1 (GN_102 K. pneumoniae XDR/PmxR)
0.25 µg/mL: MIC of antibiotic with 6442 at concn 0.25 (GN_181 E. coli mcr-1)
32 µg/mL: MIC of antibiotic with 6442 at concn 0 (GN_102 K. pneumoniae XDR/PmxR) | MIC of antibiotic with 8980 at conc 0 (GN_102 K. pneumoniae XDR/PmxR) | MIC of antibiotic with 8981 at conc 0 (GN_102 K. pneumoniae XDR/PmxR) | MIC of antibiotic with OctC4 at concn 0 (GN_102 K. pneumoniae XDR/PmxR) | MIC of antibiotic with OctC4 at concn 0.0625 (GN_102 K. pneumoniae XDR/PmxR) | MIC of antibiotic with OctC4 at concn 0.125 (GN_102 K. pneumoniae XDR/PmxR) | MIC of antibiotic with 6442 at concn 0 (GN_181 E. coli mcr-1) | MIC of antibiotic with 8980 at conc 0 (GN_181 E. coli mcr-1) | MIC of antibiotic with 8980 at conc 1 (GN_181 E. coli mcr-1) | MIC of antibiotic with 8980 at conc 2 (GN_181 E. coli mcr-1) | MIC of antibiotic with 8980 at conc 4 (GN_181 E. coli mcr-1) | MIC of antibiotic with 8981 at conc 0 (GN_181 E. coli mcr-1) | MIC of antibiotic with 8981 at conc 1 (GN_181 E. coli mcr-1) | MIC of antibiotic with 8981 at conc 2 (GN_181 E. coli mcr-1) | MIC of antibiotic with 8981 at conc 4 (GN_181 E. coli mcr-1) | MIC of antibiotic with OctC4 at concn 0 (GN_181 E. coli mcr-1)
16 µg/mL: MIC of antibiotic with 6442 at concn 0.125 (GN_102 K. pneumoniae XDR/PmxR) | MIC of antibiotic with 8980 at conc 1 (GN_102 K. pneumoniae XDR/PmxR) | MIC of antibiotic with 8981 at conc 2 (GN_102 K. pneumoniae XDR/PmxR)
8 to 16 µg/mL: MIC of antibiotic with 8981 at conc 4 (GN_102 K. pneumoniae XDR/PmxR)

arenicin-3
0.5 µg/mL: MIC of antibiotic with OctC4 at concn 0 (GN_093 A. baumannii XDR/PmxR)
2 µg/mL: MIC of antibiotic with OctC4 at concn 0 (GN_043 P. aeruginosa PmxR)
0.016 µg/mL: MIC of antibiotic with OctC4 at concn 0.25 (GN_093 A. baumannii XDR/PmxR)
0.008 µg/mL: MIC of antibiotic with OctC4 at concn 0.125 (GN_093 A. baumannii XDR/PmxR)
